The structures appear in SMILES notation. Some results are limits rather than exact numbers.

Common to all, as to type: functional, cell-based
One test relates to HepG2. Briefly: Cytotoxicity in human HepG2 cells assessed as inhibition of cell proliferation measured by CCK-8 assay.
The next test concerns PC-3M. Description: Cytotoxicity in human PC-3M cells assessed as inhibition of cell proliferation measured by CCK-8 assay.
A further test has as its system MCF7. Briefly: Cytotoxicity in human MCF7 cells assessed as inhibition of cell proliferation measured by CCK-8 assay.
For another test, the system named is A549. Briefly: Cytotoxicity in human A549 cells assessed as inhibition of cell proliferation measured by CCK-8 assay.
The subject of the next test is HMEC. Description: Cytotoxicity in human HMEC cells assessed as inhibition of cell proliferation measured by CCK-8 assay.

Take `CCCCCCCCCCCCCC(=O)O[C@H]1c2cc3c(cc2[C@@H](c2cc(OC)c(OC)c(OC)c2)[C@H]2C(=O)OC[C@@H]21)OCO3`: the IC50 is 88.7 µM with HepG2; 1.73 µM with PC-3M; more than 200 µM in the test with MCF7; 1.07 µM in the test on A549; 2.75 µM in the test with HMEC.

`COc1cc([C@@H]2c3cc4c(cc3[C@H](OC(=O)[C@H](Cc3ccccc3)NC(=O)OC(C)(C)C)[C@H]3COC(=O)[C@H]23)OCO4)cc(OC)c1OC`: the IC50 with HepG2 is more than 200 µM; with PC-3M it was 0.0201 µM; in the test with MCF7 it was 72.4 µM; with A549 it was 0.0234 µM; with HMEC, 2.46 µM.

For the compound `COc1cc([C@@H]2c3cc4c(cc3[C@H](OC(=O)[C@@H]3CCCN3C(=O)OC(C)(C)C)[C@H]3COC(=O)[C@H]23)OCO4)cc(OC)c1OC`, the IC50 in the test with HepG2 amounted to 50.8 µM; in the test on PC-3M it was 1.73 µM; in the test with MCF7, 124 µM; in the test on A549, 0.6 µM; with HMEC, 3.23 µM.

As for `C/C=C/C=C/C(=O)O[C@H]1c2cc3c(cc2[C@@H](c2cc(OC)c(OC)c(OC)c2)[C@H]2C(=O)OC[C@@H]21)OCO3`, the IC50 in the test on HepG2 is 2.34 µM; with PC-3M it was 1.09 µM; in the test with MCF7, 127 µM; with A549, 0.143 µM; in the test on HMEC it was 0.424 µM.

On to `COc1cc([C@@H]2c3cc4c(cc3[C@H](OC(=O)[C@@H](NC(=O)OC(C)(C)C)C(C)C)[C@H]3COC(=O)[C@H]23)OCO4)cc(OC)c1OC`, for which the IC50 with HepG2 was found to be 10.9 µM; with PC-3M it was 2.52 µM; in the test on MCF7, 89.1 µM; with A549 it was 11.2 µM; in the test with HMEC, 2.44 µM.

As for `COc1cc([C@@H]2c3cc4c(cc3[C@H](OC(=O)c3cccs3)[C@H]3COC(=O)[C@H]23)OCO4)cc(OC)c1OC`, the IC50 in the test on HepG2 worked out at 26.9 µM; in the test on PC-3M, 0.77 µM; in the test on MCF7, 26.5 µM; in the test on A549, 0.0684 µM; in the test on HMEC, 0.672 µM.

Turning to `CCCCCCCCCCCCCCCC(=O)O[C@H]1c2cc3c(cc2[C@@H](c2cc(OC)c(OC)c(OC)c2)[C@H]2C(=O)OC[C@@H]21)OCO3`, the IC50 is 117 µM in the test with HepG2; 2.3 µM in the test on PC-3M; more than 200 µM in the test with MCF7; 4.59 µM in the test with A549; 5.38 µM in the test on HMEC.

For the compound `COc1cc([C@@H]2c3cc4c(cc3[C@H](OC(=O)[C@H](CCSC)NC(=O)OC(C)(C)C)[C@H]3COC(=O)[C@H]23)OCO4)cc(OC)c1OC`, the IC50 with HepG2 came to 51 µM; in the test with PC-3M, 0.00511 µM; in the test with MCF7, 93.1 µM; in the test with A549 it was 1.03 µM; in the test with HMEC, 2.6 µM.

In the case of `COc1cc([C@@H]2c3cc4c(cc3[C@H](OC(=O)c3ccc(Br)s3)[C@H]3COC(=O)[C@H]23)OCO4)cc(OC)c1OC`, the IC50 in the test with HepG2 is 33.9 µM; in the test on PC-3M, 0.619 µM; with MCF7, more than 200 µM; with A549, 0.504 µM; with HMEC it was 1.77 µM.

On to `COc1cc([C@@H]2c3cc4c(cc3[C@H](OC(=O)[C@H](Cc3c[nH]c5ccccc35)NC(=O)OC(C)(C)C)[C@H]3COC(=O)[C@H]23)OCO4)cc(OC)c1OC`, for which the IC50 is more than 200 µM in the test on HepG2; 0.00607 µM in the test on PC-3M; more than 200 µM in the test with MCF7; 0.315 µM in the test on A549; 1.8 µM with HMEC.

`COc1cc([C@@H]2c3cc4c(cc3[C@H](OC(=O)[C@H](C)NC(=O)OC(C)(C)C)[C@H]3COC(=O)[C@H]23)OCO4)cc(OC)c1OC`: the IC50 in the test on HepG2 was 84.9 µM; with PC-3M it was 1.17 µM; with MCF7, 40.7 µM; with A549, 0.0284 µM; in the test on HMEC it was 8.42 µM.

On to `COc1cc([C@@H]2c3cc4c(cc3[C@H](OC(=O)CN(C)C(=O)OC(C)(C)C)[C@H]3COC(=O)[C@H]23)OCO4)cc(OC)c1OC`, for which the IC50 was 0.0132 µM with PC-3M, 0.043 µM with A549 and 27.8 µM in the test with HMEC.

Source of the values: ChEMBL document CHEMBL4811295, “The ester derivatives obtained by C-ring modification of podophyllotoxin induce apoptosis and inhibited proliferation in PC-3M cells via down-regulation of PI3K/Akt signaling pathway” (Bioorg Med Chem Lett, 2021).
